# Patent EP0334055A2, “Substituted benzoxazinones, several processes and intermediates for their preparation and their use as herbicides” (BAYER AG, priority 1988, dated 1989)
# Key:
# [1] = system: Testpflanzen; assay: Pre-emergence test (herbicidal damage to test plants); type: in vivo; settings: damage rated after three weeks against untreated control, compared with Vergleichssubstanz (A) (Oxadiazone/Ronstar)
# Source text: Lösungsmittel: 5 Gewichtsteile Aceton Emulgator: 1 Gewichtsteil Alkylarylpolyglykolether
# (§1) Zur Herstellung einer zweckmäßigen Wirkstoffzubereitung vermischt man 1 Gewichtsteil Wirkstoff mit der angegebenen Menge Lösungsmittel, gibt die angegebene Menge Emulgator zu und verdünnt das Konzentrat mit Wasser auf die gewünschte Konzentration.
# Samen der Testpflanzen werden in normalen Boden ausgesät und nach 24 Stunden mit der Wirkstoffzubereitung begossen. Dabei hält man die Wassermenge pro Flächeneinheit zweckmäßigerweise konstant. Die Wirkstoffkonzentration in der Zubereitung spielt keine Rolle, entscheidend ist nur die Aufwandmenge des Wirkstoffs pro Flächeneinheit. Nach drei Wochen wird der Schädigungsgrad der Pflanzen bonitiert in % Schädigung im Vergleich zur Entwicklung der unbehandelten Kontrolle. Es bedeuten: 0 % = keine Wirkung (wie unbehandelte Kontrolle) 100 % = totale Vernichtung
# [2] = system: Testpflanzen; assay: Post-emergence test (herbicidal damage to test plants); type: in vivo; settings: plants 5 - 15 cm, 2000 l Wasser/ha, damage rated after three weeks, compared with Vergleichssubstanz (A) (Oxadiazone/Ronstar)
# Source text: Lösungsmittel: 5 Gewichtsteil Aceton Emulgator: 1 Gewichtsteil Alkylarylpolyglykolether
# as §1
# Mit der Wirkstoffzubereitung spritzt man Testpflanzen, welche eine Höhe von 5 - 15 cm haben so, daß die jeweils gewünschten Wirkstoffmengen pro Flächeneinheit ausgebracht werden. Die Konzentration der Spritzbrühe wird so gewählt, daß in 2000 l Wasser/ha die jeweils gewünschten Wirkstoffmengen ausgebracht werden. Nach drei Wochen wird der Schädigungsgrad der Pflanzen bonitiert in % Schädigung im Vergleich zur Entwicklung der unbehandelten Kontrolle.
# Es bedeuten: 0 % = keine Wirkung (wie unbehandelte Kontrolle) 100 % = totale Vernichtung
Compound,Wirksamkeit gegenüber der Vergleichssubstanz (A) [1],Wirksamkeit gegenüber der Vergleichssubstanz (A) [2]
"O=C1COc2ccc(-n3nc4c(c3Cl)CCCC4)cc2N1 [Beispiel 30, 2-(3,4-dihydro-3-oxo-2H-1,4-benzoxazinyl)-3-chloro-4,5,6,7-tetrahydro-2H-indazol]",deutliche Überlegenheit,
"C#CCN1C(=O)COc2cc(F)c(-n3nc(C(C)(C)C)oc3=O)cc21 [Beispiel 5, 7-Fluor-4-propargyl-6-(2-tert-butyl-5-oxo-4,5-dihydro-1H-1,3,4-oxadiazol-3-yl)-3,4-dihydro-3-oxo-2H-1,4-benzoxazin]",deutliche Überlegenheit,deutliche Überlegenheit
"C#CCN1C(=O)COc2cc(F)c(-n3nc(C)c(Cl)c3C)cc21 [Beispiel 24, 7-Fluor-6-(3,5-dimethyl-4-chlorpyrazol)-4-propargyl-3,4-dihydro-3-oxo-2H-1,4-benzoxazin]",deutliche Überlegenheit,
"2-(3,4-Dihydro-3-oxo-4-propargyl-2H-1,4-benzoxazinyl)-3-chloro-4,5,6,7-tetrahydro-2H-indazol [Beispiel 31]",deutliche Überlegenheit,deutliche Überlegenheit
"CC(C)(C)c1nn(-c2cc3c(cc2F)OCC(=O)N3)c(=O)o1 [Beispiel 3, 7-Fluor-6-(2-tert-butyl-5-oxo-4,5-dihydro-1H-1,3,4-oxadiazol-3-yl)-3,4-dihydro-3-oxo-2H-1,4-benzoxazin]",deutliche Überlegenheit,deutliche Überlegenheit
"7-Fluor-6-trimethylpyrazolyl-4-propargyl-3,4-dihydro-3-oxo-2H-1,4-benzoxazin [Beispiel 4]",deutliche Überlegenheit,deutliche Überlegenheit
